The text below walks through data of PMC11951083, “Highly Specific Miniaturized Fluorescent Monoacylglycerol Lipase Probes Enable Translational Research” (Journal of the American Chemical Society, 2025).

Where two headings read alike, the source gives them in different places.

Assay [1] deals with T1, A1 (h) (Homo sapiens, UniProt P30542).
T1 sequence (P30542 1-326): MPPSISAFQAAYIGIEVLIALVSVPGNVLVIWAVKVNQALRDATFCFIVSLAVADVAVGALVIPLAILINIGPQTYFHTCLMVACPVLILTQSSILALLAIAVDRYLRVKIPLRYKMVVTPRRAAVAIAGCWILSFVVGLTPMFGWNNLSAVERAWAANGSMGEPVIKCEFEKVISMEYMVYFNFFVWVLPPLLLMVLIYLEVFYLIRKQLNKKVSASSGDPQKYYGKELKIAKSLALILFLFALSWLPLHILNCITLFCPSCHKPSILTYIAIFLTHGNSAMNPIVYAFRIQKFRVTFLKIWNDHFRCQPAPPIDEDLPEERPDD
Description: A1 (h) (agonist radioligand). The following applies: read-out: Inhibition A1 (h) (agonist radioligand).

The subject of assay [2] is BZD (central). Kind of assay: BZD (central) (agonist radioligand). The following applies: 10 µM.
Assay [3] addresses T2, NanoLuc luciferase MAGL fusion protein (Homo sapiens, UniProt Q99685).
T2 sequence (Q99685 1-303): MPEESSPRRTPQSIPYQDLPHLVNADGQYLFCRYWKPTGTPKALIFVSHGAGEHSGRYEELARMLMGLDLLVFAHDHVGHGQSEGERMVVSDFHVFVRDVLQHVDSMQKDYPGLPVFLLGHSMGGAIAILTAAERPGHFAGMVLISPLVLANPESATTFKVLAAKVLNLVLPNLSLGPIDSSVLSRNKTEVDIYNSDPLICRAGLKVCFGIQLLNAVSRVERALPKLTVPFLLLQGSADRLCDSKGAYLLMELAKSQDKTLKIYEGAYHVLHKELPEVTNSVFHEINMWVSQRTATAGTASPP
Description: Cellular MAGL NanoBRET target engagement assay in live HEK293 cells. The assay is classed as cell-based. The method, then: This assay was performed as first described before.20
Compounds were profiled by a novel cellular MAGL NanoBRET™ Target Engagement assay, which measures the apparent affinity of test compounds by competitive displacement of a Roche -developed Tracer (WO2021058443, Example 2 121, or probe 4a, respectively), reversibly bound to a NanoLuc ® luciferase MAGL fusion protein in cells.
A HEK293A stable cell line expressing NanoLuc_MAGL was established at Roche and assigned as HEK293A_NanoLuc_MAGL clone #43. A fixed concentration of tracer is added to cells expressing the NanoLuc®_MAGL fusion protein to generate a BRET reporter complex. The introduction of competing compounds results in a dose -dependent decrease in NanoBRET™ energy transfer, which allows quantification of the intracellular affinity of the target protein for the test compound.
HEK293A_NanoLuc_MAGL clone #43 cells were cultured in DMEM (Gibco 31966) with 10% FBS and 800 ug/ml G418. The NanoBRET assay was performed by seeding 5000 cells/well in Costar low - volume white 384-well plate in assay buffer (1% FBS in HBSS), followed by adding the tracer (50 nM Example 21 or 100 nM 4a final concentration) and serial dilutions of test compounds. After 2 hours of incubation, Nanoluciferase substrates and extracellular inhibitors were added following the manufacturer's protocol (Promega, #N2520), and the NanoBRET signaling were quantified with the Paradigm (Molecular Devices).
On the technique in general: Bioluminescence resonance energy transfer reports proximity on the nanometre scale.

Assay [4] addresses T3, ZAP70 kinase (h) (Homo sapiens, UniProt P43403).
T3 sequence (P43403 1-619): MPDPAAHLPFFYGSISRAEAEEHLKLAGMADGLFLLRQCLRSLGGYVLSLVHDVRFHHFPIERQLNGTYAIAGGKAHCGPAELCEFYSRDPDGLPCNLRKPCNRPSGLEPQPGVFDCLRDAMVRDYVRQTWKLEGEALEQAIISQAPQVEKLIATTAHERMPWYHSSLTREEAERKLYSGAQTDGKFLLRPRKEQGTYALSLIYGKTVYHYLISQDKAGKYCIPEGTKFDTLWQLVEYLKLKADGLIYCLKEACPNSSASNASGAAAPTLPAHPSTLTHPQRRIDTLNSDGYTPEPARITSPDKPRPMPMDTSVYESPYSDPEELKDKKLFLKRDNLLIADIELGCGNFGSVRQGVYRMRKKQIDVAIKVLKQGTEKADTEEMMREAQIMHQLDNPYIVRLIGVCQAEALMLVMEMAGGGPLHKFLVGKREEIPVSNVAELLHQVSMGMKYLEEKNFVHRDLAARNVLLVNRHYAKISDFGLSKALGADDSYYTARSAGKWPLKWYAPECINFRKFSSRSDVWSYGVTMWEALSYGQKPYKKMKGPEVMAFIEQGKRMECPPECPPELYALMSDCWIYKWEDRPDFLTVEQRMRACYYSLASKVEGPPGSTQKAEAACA
Description: ZAP70 kinase (h). The settings on record: read-out: Inhibition ZAP70 kinase (h).

Assay [5] has as its target norepinephrine transporter (h) (Homo sapiens, UniProt P23975). Kind of assay: norepinephrine transporter (h) (antagonist radioligand). The following applies: read-out: Inhibition norepinephrine transporter (h) (antagonist radioligand).
Assay [6] addresses T4, GR (h) (Homo sapiens, UniProt P04150).
T4 sequence (P04150 1-777): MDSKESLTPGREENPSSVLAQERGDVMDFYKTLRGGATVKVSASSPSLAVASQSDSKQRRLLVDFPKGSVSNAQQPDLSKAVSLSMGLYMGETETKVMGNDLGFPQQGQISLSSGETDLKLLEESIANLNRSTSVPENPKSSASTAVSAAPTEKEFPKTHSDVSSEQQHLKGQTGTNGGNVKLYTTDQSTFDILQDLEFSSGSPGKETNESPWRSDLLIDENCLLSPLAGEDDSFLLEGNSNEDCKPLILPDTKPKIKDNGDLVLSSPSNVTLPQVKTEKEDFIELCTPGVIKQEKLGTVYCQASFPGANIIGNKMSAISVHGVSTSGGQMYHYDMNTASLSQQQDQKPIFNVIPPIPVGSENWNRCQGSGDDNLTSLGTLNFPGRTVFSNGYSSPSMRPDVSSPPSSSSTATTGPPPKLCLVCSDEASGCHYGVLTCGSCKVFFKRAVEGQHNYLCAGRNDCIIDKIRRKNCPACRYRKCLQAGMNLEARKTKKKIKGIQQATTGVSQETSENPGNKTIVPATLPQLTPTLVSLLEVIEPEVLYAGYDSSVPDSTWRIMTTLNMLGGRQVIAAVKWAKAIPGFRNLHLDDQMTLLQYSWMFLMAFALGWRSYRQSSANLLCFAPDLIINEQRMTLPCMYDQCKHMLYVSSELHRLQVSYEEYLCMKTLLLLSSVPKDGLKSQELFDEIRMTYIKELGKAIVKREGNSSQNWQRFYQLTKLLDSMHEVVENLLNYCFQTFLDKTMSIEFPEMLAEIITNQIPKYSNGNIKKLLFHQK
Kind of assay: GR (h) (agonist radioligand). The settings on record: read-out: Inhibition GR (h) (agonist radioligand).

Where [7] appears, read: live HEK293 cells, read-out: IC50 nanoBRET.

norepinephrine transporter (h), sequence (P23975 whole entry): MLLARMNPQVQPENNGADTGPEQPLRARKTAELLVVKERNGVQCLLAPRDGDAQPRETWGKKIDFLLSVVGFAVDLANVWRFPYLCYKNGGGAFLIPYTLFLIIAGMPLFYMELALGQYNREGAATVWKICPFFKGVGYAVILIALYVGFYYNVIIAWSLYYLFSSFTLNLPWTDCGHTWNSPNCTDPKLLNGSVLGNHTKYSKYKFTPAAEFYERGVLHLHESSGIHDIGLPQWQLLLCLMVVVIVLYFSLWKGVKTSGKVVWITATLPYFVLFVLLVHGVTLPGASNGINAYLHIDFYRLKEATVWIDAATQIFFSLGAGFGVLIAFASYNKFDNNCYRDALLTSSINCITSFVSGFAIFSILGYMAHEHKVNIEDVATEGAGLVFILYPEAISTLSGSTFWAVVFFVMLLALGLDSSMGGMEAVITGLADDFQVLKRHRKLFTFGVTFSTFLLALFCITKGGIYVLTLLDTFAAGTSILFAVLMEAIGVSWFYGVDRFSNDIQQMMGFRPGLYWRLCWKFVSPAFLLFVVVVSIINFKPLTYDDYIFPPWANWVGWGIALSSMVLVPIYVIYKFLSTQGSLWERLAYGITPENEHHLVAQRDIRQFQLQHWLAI

Broadly, the inhibition is the relative decrease from the control value, in per cent. The IC50 is the midpoint of a concentration-inhibition curve. Take `O=C(O[C@H](CO)C(F)(F)F)N1CC2(CC(CC3=C4C=CC=[N+]4[B-](F)(F)n4cccc43)C2)C1` [Compound 1]: the inhibition at 10 µM in assay [1] is -3.9%; in assay [4], 4.3%; in assay [5], 7.4%; in assay [6], 13.9%. In addition, the “Inhibition BZD (central) (agonist radioligand)” value (“Inhibition BZD (central)” for short) in assay [2] is on record as -11,90%. Further, the IC50 in assay [3] (setting [7]) worked out at 276 nM.

In the case of `O=C1CO[C@H]2CCN(C(=O)N3CC4(CC(CC5=C6C=CC(c7ccc[nH]7)=[N+]6[B-](F)(F)n6cccc65)C4)C3)C[C@H]2N1` [Compound 4a], the inhibition at 10 µM in assay [1] was 8.7%; in assay [4] it was 5.4%; in assay [5], 12.2%; in assay [6], 48.1%. The “Inhibition BZD (central)” value in assay [2] was -4,10%.

In the case of `O=C(OC(C(F)(F)F)C(F)(F)F)N1CC2(CC(CC3=C4C=CC=[N+]4[B-](F)(F)n4cccc43)C2)C1` [Compound 2], the inhibition at 10 µM in assay [1] was 4.4%; in assay [4], -2%; in assay [5], -0.5%; in assay [6] it was 9.1%. For the same compound, the “Inhibition BZD (central)” value in assay [2] was -27,70%. Moreover, the IC50 in assay [3] (setting [7]) stood at 720 nM.

Turning to `O=C(N1CC2(CC(CC3=C4C=CC=[N+]4[B-](F)(F)n4cccc43)C2)C1)N1CC2(CC(n3cnc(C4CC4)n3)C2)C1` [Compound 5], the inhibition at 10 µM in assay [1] is 1.3%; in assay [4] it was 6.9%; in assay [5], 8.6%; in assay [6], 17.1%. In assay [2], the “Inhibition BZD (central)” value was -16,30%. For the same compound, the IC50 in assay [3] was 85 nM.

As to `O=C(OC(C(F)(F)F)C(F)(F)F)N1CC2(CC(CC3=C4C=CC(c5ccc[nH]5)=[N+]4[B-](F)(F)n4cccc43)C2)C1` [Compound 2a], the inhibition at 10 µM is -1% in assay [1], 2.3% in assay [4], 6.3% in assay [5] and 26.3% in assay [6]. Besides, the “Inhibition BZD (central)” value in assay [2] is 0,90%.

As to `O=C1CO[C@H]2CCN(C(=O)N3CC4(CC(CC5=C6C=CC=[N+]6[B-](F)(F)n6cccc65)C4)C3)C[C@H]2N1` [Compound 4], the IC50 in assay [3] (setting [7]) was determined as 196 nM.
